Test results: patent publication US4935362A, “BMY-28121, a new antitumor antibiotic” (Bristol-Myers Company, priority 1987, dated 1990)
≈ marks a conversion by molar mass, not a printed value. Where two headings read alike, the source gives them in different places.

Assays:
[1] = tested on: Micrococcus luteus PCI-1001; assay: microbe, parasite or virus in culture; assay type: cell-based
[2] = tested on: Bacteriodes fragilis A22695; assay type: cell-based
[3] = tested on: Bacteriodes fragilis CUH-108; assay type: cell-based
[4] = tested on: Bacteriodes fragilis A22534; assay type: cell-based
[5] = tested on: Bacteriodes fragilis A22533; assay type: cell-based
[6] = tested on: Bacillus subtilis PCI-219; assay: microbe, parasite or virus in culture; assay type: cell-based
[7] = tested on: Staphylococcus aureus A15097; assay type: cell-based
[8] = tested on: Morganella morganii A9553; assay type: cell-based
Proteus vulgaris A9436 = assay type: cell-based
[9] = tested on: aerobic gram-negative organisms; assay type: cell-based
Proteus mirabilis A9554 = assay type: cell-based
[10] = tested on: Staphylococcus aureus A20239; assay type: cell-based
[11] = tested on: Strpetococcus faecalis A9612; assay type: cell-based
P388 leukemia = assay type: in vivo, mice (male BDF1 strain); conditions: for T/C % of MST: ip, once daily for 9 days
[12] = tested on: Bacteriodes fragilis A22021; assay type: cell-based
[13] = tested on: Bacteriodes fragilis A22053; assay type: cell-based
Escherichia coli NIHJ = assay type: cell-based
[14] = tested on: Propionibacterium acnes A21933; assay type: cell-based; conditions: Cutibacterium acnes
[15] = tested on: Peptostreptococcus anaerobius A21905; assay type: cell-based
[16] = tested on: Staphylococcus aureus 52-34; assay type: cell-based; conditions: 5234
[17] = tested on: Staphylococcus aureus BX-1633; assay type: cell-based
[18] = tested on: Pseudomonas aeruginosa A9930; assay type: cell-based
[19] = tested on: various gram-positive and anaerobic bacteria; assay type: cell-based
[20] = tested on: Staphylococcus epidermidis D153; assay type: cell-based
[21] = tested on: Serratia marcescens A20222; assay: microbe, parasite or virus in culture; assay type: cell-based
[22] = tested on: Enterobacter cloacae A9659; assay: microbe, parasite or virus in culture; assay type: cell-based
[23] = tested on: Klebsiella pnuemonia D-11; assay type: cell-based; conditions: D11
[24] = tested on: Staphylococcus aureus D136; assay type: cell-based
B16 melanoma = assay: Antitumor activity in mice, B16 melanoma; assay type: in vivo, mice (male BDF1 strain); conditions: ip; for T/C % of MST: once daily for 9 days
L1210 leukemia = assay: Antitumor activity in mice, L1210 leukemia; assay type: in vivo, mice (male BDF1 strain); conditions: ip; for T/C % of MST: once daily for 9 days
[25] = tested on: aerobic gram-positive bacteria; assay type: cell-based
[26] = tested on: Clostridium perfringens A22787; assay: microbe, parasite or virus in culture; assay type: cell-based
anaerobic bacteria = assay type: cell-based
[27] = tested on: Clostridium difficile A21675; assay type: cell-based; conditions: Clostridioides difficile, GAM agar, 10^7-10^8 inoculum
[28] = tested on: Bacteriodes fragilis A22693; assay type: cell-based; conditions: GAM agar, 10^7-10^8 inoculum
[29] = tested on: Staphylococcus epidermidis A22152; assay type: cell-based
[30] = Bacteriodes fragilis A22695, GAM agar, 10^7-10^8 inoculum, read-out: MIC
[31] = Bacteriodes fragilis CUH-108, GAM agar, 10^7-10^8 inoculum, read-out: MIC
[32] = Bacteriodes fragilis A22533, GAM agar, 10^7-10^8 inoculum, read-out: MIC

## CC1(C)S[C@@H]2[C@H](NC(=O)[C@H](N)c3ccccc3)C(=O)N2[C@H]1C(=O)O [Ampicillin, reference compound]
[1]; PCI1001, read-out: MIC
  MIC: < 0.0063 µg/mL
[2]; [30]
  MIC: > 100 µg/mL
[3]; [31]
  MIC: 50 µg/mL (≈ 143 µM)
[4]; Bacteriodes fragilis A22534, GAM agar, 10^7-10^8 inoculum, read-out: MIC
  MIC: > 100 µg/mL
[5]; [32]
  MIC: > 100 µg/mL
[6]; PCI219
  MIC: 0.025 µg/mL (≈ 0.0715 µM)

## COc1cccc2c1N[C@H](O)[C@@H]1CC(/C=C/C(=O)N(C)C)=CN1C2=O [BMY-28121 A]
[7]
  MIC: 12.5 µg/mL (≈ 36.4 µM)
[8]
  MIC: > 50 µg/mL
Proteus vulgaris A9436
  MIC: > 50 µg/mL
[9]
  in vitro activity against aerobic gram-negative organisms: did not show any in vitro activity
[1]; PCI1001
  MIC: 12.5 µg/mL (≈ 36.4 µM)
Proteus mirabilis A9554
  MIC: > 50 µg/mL
[10]
  MIC: 12.5 µg/mL (≈ 36.4 µM)
[11]
  MIC: 12.5 µg/mL (≈ 36.4 µM)
P388 leukemia; mouse, in vivo
  antitumor activity against experimental tumors in mice: marked antitumor activity
  times more active than mitomycin C in terms of minimum effective dose: approximately 4 times
[12]; read-out: MIC
  MIC: 0.8 µg/mL (≈ 2.33 µM)
[13]; read-out: MIC
  MIC: 0.8 µg/mL (≈ 2.33 µM)
Escherichia coli NIHJ
  MIC: 50 µg/mL (≈ 146 µM)
[14]; read-out: MIC
  MIC: 0.4 µg/mL (≈ 1.16 µM)
[15]; read-out: MIC
  MIC: 0.4 µg/mL (≈ 1.16 µM)
[16]
  MIC: 3.1 µg/mL (≈ 9.03 µM)
[3]; read-out: MIC
  MIC: 0.8 µg/mL (≈ 2.33 µM)
[17]; BX1633
  MIC: 12.5 µg/mL (≈ 36.4 µM)
[18]
  MIC: > 50 µg/mL
[19]
  antibacterial activity: possess antibacterial activity
[20]
  MIC: 3.1 µg/mL (≈ 9.03 µM)
[21]
  MIC: > 50 µg/mL
[22]
  MIC: > 50 µg/mL
[23]
  MIC: > 50 µg/mL

## COc1cccc2c1N[C@H](OC)[C@@H]1CC(/C=C/C(=O)N(C)C)=CN1C2=O [BMY-28121 B, 1,10,11,11a-tetrahydro-9,11-dimethoxy-5H-pyrrolo-[2,1-c][1,4]benzodiazepine-5-one-2-N,N-dimethylacrylamide]
[24]
  MIC: 6.3 µg/mL (≈ 17.6 µM)
[7]
  MIC: 6.3 µg/mL (≈ 17.6 µM)
[8]
  MIC: > 50 µg/mL
Proteus vulgaris A9436
  MIC: > 50 µg/mL
[9]
  in vitro activity against aerobic gram-negative organisms: did not show any in vitro activity
B16 melanoma; 0.13 mg/kg/day
  T/C % of MST: 113%
B16 melanoma; 0.25 mg/kg/day
  T/C % of MST: 131%
B16 melanoma
  activity against B16 melanoma: marginally active
[1]; PCI1001
  MIC: 12.5 µg/mL (≈ 35 µM)
L1210 leukemia; 0.13 mg/kg/day
  T/C % of MST: 129%
L1210 leukemia; 0.25 mg/kg/day
  T/C % of MST: 129%
L1210 leukemia
  therapeutic activity against L1210 leukemia: potent therapeutic activity
Proteus mirabilis A9554
  MIC: > 50 µg/mL
[10]
  MIC: 6.3 µg/mL (≈ 17.6 µM)
[11]
  MIC: 6.3 µg/mL (≈ 17.6 µM)
[25]
  susceptibility of aerobic gram-positive bacteria: moderately susceptible
P388 leukemia; 0.008 mg/kg/day, P388 leukemia
  T/C % of MST: 120%
P388 leukemia; 0.13 mg/kg/day, P388 leukemia
  T/C % of MST: 200%
P388 leukemia; 0.25 mg/kg/day, P388 leukemia
  T/C % of MST: 210%
P388 leukemia; P388 leukemia, vs mitomycin C
  times more active than mitomycin C in terms of minimum effective dose: approximately 4 times
P388 leukemia; eg. P388 leukemia in mice
  antitumor activity against experimental tumors in mice: marked antitumor activity
[12]
  MIC: 0.2 µg/mL (≈ 0.56 µM)
[13]
  MIC: 0.4 µg/mL (≈ 1.12 µM)
[2]
  MIC: 0.4 µg/mL (≈ 1.12 µM)
Escherichia coli NIHJ
  MIC: > 50 µg/mL
[14]
  MIC: 0.4 µg/mL (≈ 1.12 µM)
[26]
  MIC: 0.4 µg/mL (≈ 1.12 µM)
[15]
  MIC: 0.2 µg/mL (≈ 0.56 µM)
Anaerobic bacteria
  inhibition of anaerobic bacteria: inhibited all of the gram-positive and negative organisms
[3]
  MIC: 0.4 µg/mL (≈ 1.12 µM)
[17]; BX1633
  MIC: 6.3 µg/mL (≈ 17.6 µM)
In ethyl acetate and ethyl ether
  solubility: slightly soluble
In methanol, ethanol, chloroform, pyridine, and dimethylformamide
  solubility: readily soluble
In n-hexane and water
  solubility: practically insoluble
[18]
  MIC: > 50 µg/mL
[19]
  antibacterial activity: possess antibacterial activity
[21]
  MIC: > 50 µg/mL
[22]
  MIC: > 50 µg/mL
[4]
  MIC: 0.4 µg/mL (≈ 1.12 µM)
[23]
  MIC: > 50 µg/mL
[5]
  MIC: 0.8 µg/mL (≈ 2.24 µM)

## CCC[C@@H]1C[C@@H](C(=O)N[C@@H]([C@H]2O[C@H](SC)[C@H](O)[C@@H](O)[C@H]2O)[C@H](C)Cl)N(C)C1 [Clindamycin]
[27]
  MIC: 50 µg/mL (≈ 118 µM)
[12]; Bacteriodes fragilis A22021, GAM agar, 10^7-10^8 inoculum, read-out: MIC
  MIC: 0.1 µg/mL (≈ 0.235 µM)
[13]; Bacteriodes fragilis A22053, GAM agar, 10^7-10^8 inoculum, read-out: MIC
  MIC: 0.2 µg/mL (≈ 0.471 µM)
[2]; [30]
  MIC: 0.1 µg/mL (≈ 0.235 µM)
[28]
  MIC: 0.1 µg/mL (≈ 0.235 µM)
[3]; [31]
  MIC: 100 µg/mL (≈ 235 µM)
[5]; [32]
  MIC: 0.1 µg/mL (≈ 0.235 µM)

## NC[C@H]1O[C@H](O[C@H]2[C@H](O)[C@@H](O[C@H]3O[C@H](CO)[C@@H](O)[C@H](N)[C@H]3O)[C@H](N)C[C@@H]2N)[C@H](O)[C@@H](O)[C@@H]1O [Kanamycin, reference compound]
[24]; read-out: MIC
  MIC: 0.8 µg/mL (≈ 1.65 µM)
[7]; read-out: MIC
  MIC: 0.8 µg/mL (≈ 1.65 µM)
[8]
  MIC: 6.3 µg/mL (≈ 13 µM)
Proteus vulgaris A9436; read-out: MIC
  MIC: 0.8 µg/mL (≈ 1.65 µM)
[1]; PCI1001
  MIC: 6.3 µg/mL (≈ 13 µM)
Proteus mirabilis A9554
  MIC: 6.3 µg/mL (≈ 13 µM)
[10]
  MIC: 100 µg/mL (≈ 206 µM)
[11]
  MIC: 25 µg/mL (≈ 51.6 µM)
[29]
  MIC: 25 µg/mL (≈ 51.6 µM)
Escherichia coli NIHJ; read-out: MIC
  MIC: 1.6 µg/mL (≈ 3.3 µM)
[16]
  MIC: 0.8 µg/mL (≈ 1.65 µM)
[17]; BX1633, read-out: MIC
  MIC: 0.8 µg/mL (≈ 1.65 µM)
[18]
  MIC: 6.3 µg/mL (≈ 13 µM)
[20]
  MIC: 0.8 µg/mL (≈ 1.65 µM)
[21]; read-out: MIC
  MIC: 3.1 µg/mL (≈ 6.4 µM)
[22]; read-out: MIC
  MIC: 3.1 µg/mL (≈ 6.4 µM)
[23]
  MIC: 0.4 µg/mL (≈ 0.826 µM)
[6]; PCI219, read-out: MIC
  MIC: 0.2 µg/mL (≈ 0.413 µM)

## CO[C@@]12[C@H](COC(N)=O)C3=C(C(=O)C(C)=C(N)C3=O)N1C[C@@H]1N[C@@H]12 [Mitomycin C, reference compound]
B16 melanoma; 0.5 mg/kg/day
  T/C % of MST: 164%
B16 melanoma; 1 mg/kg/day
  T/C % of MST: 191%
L1210 leukemia; 0.13 mg/kg/day
  T/C % of MST: 129%
L1210 leukemia; 0.25 mg/kg/day
  T/C % of MST: 129%
L1210 leukemia; 0.5 mg/kg/day
  T/C % of MST: 141%
L1210 leukemia; 1 mg/kg/day
  T/C % of MST: 141%
P388 leukemia; 0.13 mg/kg/day, P388 leukemia
  T/C % of MST: 150%
P388 leukemia; 0.25 mg/kg/day, P388 leukemia
  T/C % of MST: 180%
P388 leukemia; 0.5 mg/kg/day, P388 leukemia
  T/C % of MST: 240%
P388 leukemia; 1 mg/kg/day, P388 leukemia
  T/C % of MST: 450%
